pIC50: −log10 of the molar value. Activity calls are given as the source filed them. The calls are words filed in the database; no cut-off is given here.
Tests used:
MDA-MB-231 = assay: Cytotoxicity against human MDA-MB-231 cells; type: functional
SF-295 = assay: Cytotoxicity against human SF295 cells; type: functional
SNB-75 = assay: Cytotoxicity against human SNB75 cells; type: functional
U-251 = assay: Cytotoxicity against human U251 cells; type: functional
HCC 2998 = assay: Cytotoxicity against human HCC2998 cells; type: functional
HCT-15 = assay: Cytotoxicity against human HCT15 cells; type: functional
HT-29 = assay: Cytotoxicity against human HT-29 cells; type: functional
KM12 = assay: Cytotoxicity against human KM12 cells; type: functional
NCI-H322M = assay: Cytotoxicity against human NCI-H322M cells; type: functional
SR = assay: Cytotoxicity against human SR cells; type: functional
SK-MEL-5 = assay: Cytotoxicity against human SK-MEL-5 cells; type: functional
NCI/ADR-RES = assay: Cytotoxicity against human NCI/ADR-RES cells; type: functional
SK-OV-3 = assay: Cytotoxicity against human SKOV3 cells; type: functional
TK-10 = assay: Cytotoxicity against human TK10 cells; type: functional
MCF7 = assay: Inhibition of RNA synthesis in human MCF7 cells assessed as decrease in [3H] Uridine incorporation after 2 hrs by scintillation counting; type: functional, cell-based
[1] = molecular target: Cyclin-dependent kinase 9 (Homo sapiens) (UniProt P50750); assay: Inhibition of CDK9-catalyzed RNA polymerase 2 phosphorylation at Ser2 in human MCF7 cells after 2 hrs by immunoblotting; type: cell-based
[2] = molecular target: Cyclin-dependent kinase 7 (Homo sapiens) (UniProt P50613); assay: Inhibition of CDK7-catalyzed RNA polymerase 2 phosphorylation at Ser5 in human HMEC1 cells at 5 to 40 uM after 2 hrs by immunoblotting; type: cell-based
[3] = molecular target: Aurora kinase B (Homo sapiens) (UniProt Q96GD4); assay: Inhibition of Aurora B assessed as residual activity at 10 uM by radioactivity assay in presence of 20 uM ATP
[4] = molecular target: Calcium/calmodulin-dependent protein kinase type 1 (Homo sapiens) (UniProt Q14012); assay: Inhibition of CAMK1 assessed as residual activity at 10 uM by radioactivity assay in presence of 50 uM ATP
[5] = molecular target: Cyclin-dependent kinase 2/cyclin A (Homo sapiens) (UniProt P24941+P20248+P78396); assay: Inhibition of CDK2/cyclin A assessed as residual activity at 10 uM by radioactivity assay in presence of 20 uM ATP; type: protein-complex assay
[6] = molecular target: Eukaryotic elongation factor 2 kinase (Homo sapiens) (UniProt O00418); assay: Inhibition of EF2K assessed as residual activity at 10 uM by radioactivity assay in presence of 5 uM ATP
[7] = molecular target: Ephrin type-A receptor 2 (Homo sapiens) (UniProt P29317); assay: Inhibition of EPHA2 assessed as residual activity at 10 uM by radioactivity assay in presence of 50 uM ATP
[8] = molecular target: Mitogen-activated protein kinase 3 (Homo sapiens) (UniProt P27361); assay: Inhibition of ERK1 assessed as residual activity at 10 uM by radioactivity assay in presence of 5 uM ATP
[9] = molecular target: Mitogen-activated protein kinase 15 (Homo sapiens) (UniProt Q8TD08); assay: Inhibition of ERK8 assessed as residual activity at 10 uM by radioactivity assay in presence of 5 uM ATP
[10] = molecular target: Glycogen synthase kinase-3 beta (Homo sapiens) (UniProt P49841); assay: Inhibition of GSK3b assessed as residual activity at 10 uM by radioactivity assay in presence of 5 uM ATP
[11] = molecular target: Homeodomain-interacting protein kinase 1 (Homo sapiens) (UniProt Q86Z02); assay: Inhibition of HIPK1 assessed as residual activity at 10 uM by radioactivity assay in presence of 20 uM ATP
[12] = molecular target: Tyrosine-protein kinase JAK2 (Homo sapiens) (UniProt O60674); assay: Inhibition of JAK2 assessed as residual activity at 10 uM by radioactivity assay in presence of 5 uM ATP
[13] = molecular target: MAP/microtubule affinity-regulating kinase 3 (Homo sapiens) (UniProt P27448); assay: Inhibition of MARK3 assessed as residual activity at 10 uM by radioactivity assay in presence of 5 uM ATP
[14] = molecular target: MAP kinase-interacting serine/threonine-protein kinase 1 (Homo sapiens) (UniProt Q9BUB5); assay: Inhibition of MNK1 assessed as residual activity at 10 uM by radioactivity assay in presence of 50 uM ATP
[15] = molecular target: Serine/threonine-protein kinase PAK 4 (Homo sapiens) (UniProt O96013); assay: Inhibition of PAK4 assessed as residual activity at 10 uM by radioactivity assay in presence of 5 uM ATP
[16] = molecular target: Serine/threonine-protein kinase PAK 6 (Homo sapiens) (UniProt Q9NQU5); assay: Inhibition of PAK6 assessed as residual activity at 10 uM by radioactivity assay in presence of 20 uM ATP
[17] = molecular target: Phosphorylase b kinase gamma catalytic chain, skeletal muscle/heart isoform (Homo sapiens) (UniProt Q16816); assay: Inhibition of PHKG1 assessed as residual activity at 10 uM by radioactivity assay in presence of 50 uM ATP
[18] = molecular target: Protein kinase C alpha type (Homo sapiens) (UniProt P17252); assay: Inhibition of PKCalpha assessed as residual activity at 10 uM by radioactivity assay in presence of 20 uM ATP
[19] = molecular target: Protein kinase C zeta type (Homo sapiens) (UniProt Q05513); assay: Inhibition of PKCzeta assessed as residual activity at 10 uM by radioactivity assay in presence of 5 uM ATP
[20] = molecular target: Serine/threonine-protein kinase D1 (Homo sapiens) (UniProt Q15139); assay: Inhibition of PKD1 assessed as residual activity at 10 uM by radioactivity assay in presence of 50 uM ATP
[21] = molecular target: Ribosomal protein S6 kinase alpha-3 (Homo sapiens) (UniProt P51812); assay: Inhibition of RSK2 assessed as residual activity at 10 uM by radioactivity assay in presence of 50 uM ATP
[22] = molecular target: Ribosomal protein S6 kinase beta-1 (Homo sapiens) (UniProt P23443); assay: Inhibition of S6K1 assessed as residual activity at 10 uM by radioactivity assay in presence of 20 uM ATP
[23] = molecular target: Proto-oncogene tyrosine-protein kinase Src (Homo sapiens) (UniProt P12931); assay: Inhibition of Src assessed as residual activity at 10 uM by radioactivity assay in presence of 50 uM ATP
[24] = molecular target: High affinity nerve growth factor receptor (Homo sapiens) (UniProt P04629); assay: Inhibition of TrkA assessed as residual activity at 10 uM by radioactivity assay in presence of 20 uM ATP
[25] = molecular target: Dual specificity protein kinase TTK (Homo sapiens) (UniProt P33981); assay: Inhibition of TTK assessed as residual activity at 10 uM by radioactivity assay in presence of 20 uM ATP
HUVEC = assay: Antiproliferative activity against HUVEC cells assessed as decrease in cell viability at 10 to 40 uM within 72 hrs by calcein AM staining-based fluorescence assay; conditions: human

Chain of Ribosomal protein S6 kinase alpha-3 (Homo sapiens) (P51812 whole entry): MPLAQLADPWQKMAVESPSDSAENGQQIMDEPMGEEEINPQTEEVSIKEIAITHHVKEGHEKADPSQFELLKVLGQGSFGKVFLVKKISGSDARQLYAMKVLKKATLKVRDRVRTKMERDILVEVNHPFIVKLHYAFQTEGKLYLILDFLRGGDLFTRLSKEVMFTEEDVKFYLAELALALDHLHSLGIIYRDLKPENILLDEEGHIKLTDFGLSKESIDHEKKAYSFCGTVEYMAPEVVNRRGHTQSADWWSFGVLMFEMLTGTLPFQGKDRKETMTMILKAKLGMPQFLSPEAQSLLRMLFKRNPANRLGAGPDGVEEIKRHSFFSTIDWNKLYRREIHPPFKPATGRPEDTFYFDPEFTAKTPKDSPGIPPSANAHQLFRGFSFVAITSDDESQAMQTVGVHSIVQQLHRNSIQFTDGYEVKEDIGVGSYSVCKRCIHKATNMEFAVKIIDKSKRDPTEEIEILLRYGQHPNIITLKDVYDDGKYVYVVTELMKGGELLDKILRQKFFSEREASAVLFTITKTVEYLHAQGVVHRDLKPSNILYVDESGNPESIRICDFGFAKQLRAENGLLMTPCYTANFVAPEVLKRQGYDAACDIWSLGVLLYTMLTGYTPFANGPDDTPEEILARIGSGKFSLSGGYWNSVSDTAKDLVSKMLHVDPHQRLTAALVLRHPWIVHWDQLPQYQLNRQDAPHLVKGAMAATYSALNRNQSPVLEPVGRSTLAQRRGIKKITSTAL
Chain of Serine/threonine-protein kinase PAK 6 (Homo sapiens) (Q9NQU5 whole entry, looked up, canonical isoform): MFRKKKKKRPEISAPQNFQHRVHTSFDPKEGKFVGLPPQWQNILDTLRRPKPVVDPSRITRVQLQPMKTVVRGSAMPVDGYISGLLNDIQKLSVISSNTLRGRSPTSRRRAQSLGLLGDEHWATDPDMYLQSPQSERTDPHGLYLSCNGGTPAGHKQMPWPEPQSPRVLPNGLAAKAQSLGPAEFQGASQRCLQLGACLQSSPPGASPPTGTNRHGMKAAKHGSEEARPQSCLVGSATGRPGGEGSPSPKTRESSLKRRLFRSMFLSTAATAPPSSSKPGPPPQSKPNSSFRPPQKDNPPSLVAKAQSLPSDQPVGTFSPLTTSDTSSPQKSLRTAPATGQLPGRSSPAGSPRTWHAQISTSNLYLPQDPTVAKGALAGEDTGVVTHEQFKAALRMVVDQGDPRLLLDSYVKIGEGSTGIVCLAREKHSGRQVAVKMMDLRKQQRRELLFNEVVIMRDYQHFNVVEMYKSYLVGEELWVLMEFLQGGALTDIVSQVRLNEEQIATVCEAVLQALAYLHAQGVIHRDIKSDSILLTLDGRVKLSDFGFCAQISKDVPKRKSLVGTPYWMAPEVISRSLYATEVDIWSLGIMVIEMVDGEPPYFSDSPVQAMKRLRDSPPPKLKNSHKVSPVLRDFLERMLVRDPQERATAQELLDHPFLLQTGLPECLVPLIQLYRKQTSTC
Chain of Dual specificity protein kinase TTK (Homo sapiens) (P33981 whole entry): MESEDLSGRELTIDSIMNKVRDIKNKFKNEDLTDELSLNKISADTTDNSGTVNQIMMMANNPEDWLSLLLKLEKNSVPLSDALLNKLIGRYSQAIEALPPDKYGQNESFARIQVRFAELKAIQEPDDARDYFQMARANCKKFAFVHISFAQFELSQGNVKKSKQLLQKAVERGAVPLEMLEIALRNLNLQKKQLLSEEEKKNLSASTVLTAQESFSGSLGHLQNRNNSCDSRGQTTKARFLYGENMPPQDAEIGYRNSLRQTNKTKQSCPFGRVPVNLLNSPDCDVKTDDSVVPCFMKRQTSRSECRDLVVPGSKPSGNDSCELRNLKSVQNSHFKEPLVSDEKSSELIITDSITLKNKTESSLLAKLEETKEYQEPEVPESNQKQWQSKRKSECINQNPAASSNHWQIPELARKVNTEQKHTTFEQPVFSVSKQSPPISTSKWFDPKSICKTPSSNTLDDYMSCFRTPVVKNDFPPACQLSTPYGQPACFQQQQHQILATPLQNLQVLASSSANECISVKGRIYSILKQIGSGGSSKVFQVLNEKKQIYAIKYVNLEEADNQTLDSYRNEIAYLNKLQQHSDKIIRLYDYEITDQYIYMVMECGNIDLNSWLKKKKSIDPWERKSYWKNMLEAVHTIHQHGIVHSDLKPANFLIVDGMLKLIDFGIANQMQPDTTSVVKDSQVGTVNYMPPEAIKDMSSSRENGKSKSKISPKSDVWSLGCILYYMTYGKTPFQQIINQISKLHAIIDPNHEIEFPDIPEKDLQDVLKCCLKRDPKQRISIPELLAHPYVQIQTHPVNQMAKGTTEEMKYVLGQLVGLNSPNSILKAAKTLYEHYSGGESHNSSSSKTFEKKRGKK
Chain of Mitogen-activated protein kinase 15 (Homo sapiens) (Q8TD08 whole entry): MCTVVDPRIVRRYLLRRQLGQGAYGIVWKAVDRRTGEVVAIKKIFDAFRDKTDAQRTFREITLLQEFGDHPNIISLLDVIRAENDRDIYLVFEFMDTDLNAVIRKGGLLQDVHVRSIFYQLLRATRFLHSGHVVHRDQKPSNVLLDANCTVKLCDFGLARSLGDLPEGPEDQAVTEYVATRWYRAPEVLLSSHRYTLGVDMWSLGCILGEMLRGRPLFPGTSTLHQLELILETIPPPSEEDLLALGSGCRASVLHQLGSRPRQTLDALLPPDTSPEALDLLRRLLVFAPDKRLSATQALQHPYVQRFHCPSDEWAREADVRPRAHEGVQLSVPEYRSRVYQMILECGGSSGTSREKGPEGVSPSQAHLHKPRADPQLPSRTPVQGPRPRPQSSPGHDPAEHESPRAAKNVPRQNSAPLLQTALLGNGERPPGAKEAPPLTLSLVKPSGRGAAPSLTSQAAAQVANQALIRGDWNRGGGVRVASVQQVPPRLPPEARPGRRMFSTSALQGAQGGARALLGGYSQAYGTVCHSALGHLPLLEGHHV
Chain of Mitogen-activated protein kinase 3 (Homo sapiens) (P27361 whole entry): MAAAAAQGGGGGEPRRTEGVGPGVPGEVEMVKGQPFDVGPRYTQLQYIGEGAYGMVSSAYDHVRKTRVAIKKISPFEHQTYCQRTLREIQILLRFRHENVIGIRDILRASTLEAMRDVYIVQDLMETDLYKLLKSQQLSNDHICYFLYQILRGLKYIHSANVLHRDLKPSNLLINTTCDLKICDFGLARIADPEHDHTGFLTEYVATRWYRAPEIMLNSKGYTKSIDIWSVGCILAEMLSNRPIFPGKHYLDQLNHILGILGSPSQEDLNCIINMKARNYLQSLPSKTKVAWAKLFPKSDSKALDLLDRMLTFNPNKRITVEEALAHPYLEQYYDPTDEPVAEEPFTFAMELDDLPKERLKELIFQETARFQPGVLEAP
Chain of Ephrin type-A receptor 2 (Homo sapiens) (P29317 whole entry): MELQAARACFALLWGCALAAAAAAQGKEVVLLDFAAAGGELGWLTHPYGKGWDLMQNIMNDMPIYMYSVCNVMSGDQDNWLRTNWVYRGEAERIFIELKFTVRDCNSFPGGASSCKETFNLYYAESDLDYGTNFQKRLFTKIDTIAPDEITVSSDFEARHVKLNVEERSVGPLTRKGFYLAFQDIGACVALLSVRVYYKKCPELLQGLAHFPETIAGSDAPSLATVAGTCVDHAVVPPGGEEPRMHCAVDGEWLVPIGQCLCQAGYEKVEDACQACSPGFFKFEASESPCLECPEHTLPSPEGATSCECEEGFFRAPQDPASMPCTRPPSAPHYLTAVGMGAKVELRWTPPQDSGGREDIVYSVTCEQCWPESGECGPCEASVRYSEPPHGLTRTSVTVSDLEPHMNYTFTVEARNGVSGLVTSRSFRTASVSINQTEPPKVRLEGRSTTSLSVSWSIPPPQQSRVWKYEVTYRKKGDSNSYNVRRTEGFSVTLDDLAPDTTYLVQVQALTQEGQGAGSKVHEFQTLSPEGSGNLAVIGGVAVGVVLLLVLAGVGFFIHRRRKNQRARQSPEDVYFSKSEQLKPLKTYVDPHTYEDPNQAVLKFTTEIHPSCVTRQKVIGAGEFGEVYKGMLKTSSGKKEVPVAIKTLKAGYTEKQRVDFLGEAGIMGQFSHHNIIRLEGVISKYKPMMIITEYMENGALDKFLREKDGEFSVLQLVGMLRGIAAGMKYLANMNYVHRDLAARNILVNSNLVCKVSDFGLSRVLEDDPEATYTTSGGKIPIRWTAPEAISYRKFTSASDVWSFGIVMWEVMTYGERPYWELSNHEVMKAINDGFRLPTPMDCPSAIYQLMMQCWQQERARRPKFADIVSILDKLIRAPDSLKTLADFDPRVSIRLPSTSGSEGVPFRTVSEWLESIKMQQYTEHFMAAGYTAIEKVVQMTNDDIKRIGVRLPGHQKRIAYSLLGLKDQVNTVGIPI

## Nc1n[nH]c(N)c1/N=N/c1ccc(O)cc1
MDA-MB-231
  GI50: 16.7 µM
SF-295
  GI50: 23.3 µM
SNB-75
  GI50: 18.5 µM
U-251
  GI50: 21.2 µM
HCC 2998
  GI50: 29.4 µM
HCT-15
  GI50: 24.2 µM
HT-29
  GI50: 29.7 µM
KM12
  GI50: 17.1 µM
NCI-H322M
  GI50: 25.1 µM
SR
  GI50: 10.3 µM
SK-MEL-5
  GI50: 13.9 µM
NCI/ADR-RES
  GI50: 22.5 µM
SK-OV-3
  GI50: 49.2 µM
TK-10
  GI50: 25.6 µM
MCF7
  pIC50: 4.82
[1]
  inhibition: Dose-dependent effect
[2]
  inhibition: Active
[3]
  Activity: 46%
[4]
  Activity: 81%
[5]
  Activity: 27%
[6]
  Activity: 106%
[7]
  Activity: 101%
[8]
  Activity: 115%
[9]
  Activity: 17%
[10]
  Activity: 64%
[11]
  Activity: 106%
[12]
  Activity: 19%
[13]
  Activity: 50%
[14]
  Activity: 37%
[15]
  Activity: 79%
[16]
  Activity: 97%
[17]
  Activity: 29%
[18]
  Activity: 83%
[19]
  Activity: 74%
[20]
  Activity: 67%
[21]
  Activity: 96%
[22]
  Activity: 79%
[23]
  Activity: 62%
[24]
  Activity: 98%
[25]
  Activity: 55%
HUVEC
  Activity: Non-toxic

— ChEMBL document CHEMBL1821675, “The selective P-TEFb inhibitor CAN508 targets angiogenesis” (Eur J Med Chem, 2011)
